Measurements published in PubChem BioAssay (NCI).
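GI50: concentration for 50% inhibition of growth. TGI denotes the concentration required for complete inhibition of growth.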

How the values were obtained:
Test in all cases: NCI tumour cell line growth inhibition, 384-well format
MALME-3M melanoma = tested on: MALME-3M melanoma
RPMI-8226 leukemia = tested on: RPMI-8226 leukemia
MDA-MB-231 breast = tested on: MDA-MB-231 breast
HCT-15 colon = tested on: HCT-15 colon
A498 renal = tested on: A498 renal
HT29 colon = tested on: HT29 colon
OVCAR-4 ovarian = tested on: OVCAR-4 ovarian
RXF 393 renal = tested on: RXF 393 renal
LOX IMVI melanoma = tested on: LOX IMVI melanoma
SN12C renal = tested on: SN12C renal
A549 NSCLC = tested on: A549 NSCLC
DU-145 prostate = tested on: DU-145 prostate
COLO 205 colon = tested on: COLO 205 colon
SNB-19 CNS = tested on: SNB-19 CNS
UACC-257 melanoma = tested on: UACC-257 melanoma
SNB-75 CNS = tested on: SNB-75 CNS
HL-60(TB) leukemia = tested on: HL-60(TB) leukemia
OVCAR-3 ovarian = tested on: OVCAR-3 ovarian
786-0 renal = tested on: 786-0 renal
M14 melanoma = tested on: M14 melanoma
NCI-H460 NSCLC = tested on: NCI-H460 NSCLC
NCI-H226 lung = tested on: NCI-H226 lung
HCC-2998 colon = tested on: HCC-2998 colon
MOLT-4 leukemia = tested on: MOLT-4 leukemia
EKVX NSCLC = tested on: EKVX NSCLC
HS 578T breast = tested on: HS 578T breast
SR leukemia = tested on: SR leukemia
BT-549 breast = tested on: BT-549 breast
TK-10 renal = tested on: TK-10 renal
PC-3 prostate = tested on: PC-3 prostate
SK-MEL-5 melanoma = tested on: SK-MEL-5 melanoma
SF-295 CNS = tested on: SF-295 CNS
SW-620 colon = tested on: SW-620 colon
UACC-62 melanoma = tested on: UACC-62 melanoma
IGROV1 ovarian = tested on: IGROV1 ovarian
HOP-92 NSCLC = tested on: HOP-92 NSCLC
ACHN renal = tested on: ACHN renal
K-562 leukemia = tested on: K-562 leukemia
KM12 colon = tested on: KM12 colon
NCI/ADR-RES ovarian = tested on: NCI/ADR-RES ovarian
NCI-H322M lung = tested on: NCI-H322M lung
SK-OV-3 ovarian = tested on: SK-OV-3 ovarian
NCI-H23 lung = tested on: NCI-H23 lung
SF-539 CNS = tested on: SF-539 CNS
MDA-MB-435 melanoma = tested on: MDA-MB-435 melanoma
MDA-MB-468 breast = tested on: MDA-MB-468 breast
CCRF-CEM leukemia = tested on: CCRF-CEM leukemia
CAKI-1 renal = tested on: CAKI-1 renal
SF-268 CNS = tested on: SF-268 CNS
MCF7 breast = tested on: MCF7 breast
NCI-H522 lung = tested on: NCI-H522 lung
HOP-62 NSCLC = tested on: HOP-62 NSCLC
OVCAR-8 ovarian = tested on: OVCAR-8 ovarian
SK-MEL-28 melanoma = tested on: SK-MEL-28 melanoma
UO-31 renal = tested on: UO-31 renal
OVCAR-5 ovarian = tested on: OVCAR-5 ovarian
T-47D breast = tested on: T-47D breast

CC(=O)Nc1nc(C)c(-c2cc3c(c(S(C)(=O)=O)c2)C(=O)N([C@@H](C)C2CC2)C3)s1
GI50 (MALME-3M melanoma): 14.9 µM
TGI (MALME-3M melanoma): 57.1 µM
GI50 (RPMI-8226 leukemia): 19.9 µM
TGI (RPMI-8226 leukemia): 40.8 µM
GI50 (MDA-MB-231 breast): 22.3 µM
TGI (MDA-MB-231 breast): > 100 µM
GI50 (HCT-15 colon): 28.6 µM
TGI (HCT-15 colon): 93.4 µM
GI50 (A498 renal): 19.3 µM
TGI (A498 renal): 80.4 µM
GI50 (HT29 colon): 29.8 µM
TGI (HT29 colon): > 100 µM
GI50 (OVCAR-4 ovarian): 20.8 µM
TGI (OVCAR-4 ovarian): 77 µM
GI50 (RXF 393 renal): 30.9 µM
TGI (RXF 393 renal): > 100 µM
GI50 (LOX IMVI melanoma): 28.2 µM
TGI (LOX IMVI melanoma): 86.3 µM
GI50 (SN12C renal): 25.1 µM
TGI (SN12C renal): 91.3 µM
GI50 (A549 NSCLC): 33.6 µM
TGI (A549 NSCLC): > 100 µM
GI50 (DU-145 prostate): 34.9 µM
TGI (DU-145 prostate): > 100 µM
GI50 (COLO 205 colon): 38.8 µM
TGI (COLO 205 colon): > 100 µM
GI50 (SNB-19 CNS): 82.2 µM
TGI (SNB-19 CNS): > 100 µM
GI50 (UACC-257 melanoma): 27.2 µM
TGI (UACC-257 melanoma): > 100 µM
GI50 (SNB-75 CNS): 28.6 µM
TGI (SNB-75 CNS): > 100 µM
GI50 (HL-60(TB) leukemia): 13 µM
TGI (HL-60(TB) leukemia): 33.3 µM
GI50 (OVCAR-3 ovarian): 26.5 µM
TGI (OVCAR-3 ovarian): > 100 µM
GI50 ([…]-0 renal): 34.7 µM
TGI (786-0 renal): > 100 µM
GI50 (M14 melanoma): 31.7 µM
TGI (M14 melanoma): > 100 µM
GI50 (NCI-H460 NSCLC): 30 µM
TGI (NCI-H460 NSCLC): > 100 µM
GI50 (NCI-H226 lung): 35.7 µM
TGI (NCI-H226 lung): > 100 µM
GI50 (HCC-2998 colon): 51.3 µM
TGI (HCC-2998 colon): > 100 µM
GI50 (MOLT-4 leukemia): 17.5 µM
TGI (MOLT-4 leukemia): 33.1 µM
GI50 (EKVX NSCLC): 42.1 µM
TGI (EKVX NSCLC): > 100 µM
GI50 (HS 578T breast): 17.5 µM
TGI (HS 578T breast): 51.4 µM
GI50 (SR leukemia): 17.3 µM
TGI (SR leukemia): 43.8 µM
GI50 (BT-549 breast): 36.9 µM
TGI (BT-549 breast): > 100 µM
GI50 (TK-10 renal): 31.8 µM
TGI (TK-10 renal): > 100 µM
GI50 (PC-3 prostate): 39.6 µM
TGI (PC-3 prostate): > 100 µM
GI50 (SK-MEL-5 melanoma): 15 µM
TGI (SK-MEL-5 melanoma): 41.4 µM
GI50 (SF-295 CNS): 27.9 µM
TGI (SF-295 CNS): > 100 µM
GI50 (SW-620 colon): > 100 µM
TGI (SW-620 colon): > 100 µM
GI50 (UACC-62 melanoma): 29.1 µM
TGI (UACC-62 melanoma): > 100 µM
GI50 (IGROV1 ovarian): 22.6 µM
TGI (IGROV1 ovarian): 54.8 µM
GI50 (HOP-92 NSCLC): 32.1 µM
TGI (HOP-92 NSCLC): > 100 µM
GI50 (ACHN renal): 31 µM
TGI (ACHN renal): > 100 µM
GI50 (K-562 leukemia): 29.1 µM
TGI (K-562 leukemia): > 100 µM
GI50 (KM12 colon): 42.6 µM
TGI (KM12 colon): > 100 µM
GI50 (NCI/ADR-RES ovarian): 77.4 µM
TGI (NCI/ADR-RES ovarian): > 100 µM
GI50 (NCI-H322M lung): 30.3 µM
TGI (NCI-H322M lung): > 100 µM
GI50 (SK-OV-3 ovarian): 19.3 µM
TGI (SK-OV-3 ovarian): 48.5 µM
GI50 (NCI-H23 lung): 28.7 µM
TGI (NCI-H23 lung): > 100 µM
GI50 (SF-539 CNS): 31.5 µM
TGI (SF-539 CNS): > 100 µM
GI50 (MDA-MB-435 melanoma): 54.4 µM
TGI (MDA-MB-435 melanoma): > 100 µM
GI50 (MDA-MB-468 breast): 15.5 µM
TGI (MDA-MB-468 breast): 45 µM
GI50 (CCRF-CEM leukemia): 0.0269 µM
TGI (CCRF-CEM leukemia): 11.7 µM
GI50 (CAKI-1 renal): 25.5 µM
TGI (CAKI-1 renal): 77.6 µM
GI50 (SF-268 CNS): 34.7 µM
TGI (SF-268 CNS): > 100 µM
GI50 (MCF7 breast): 24.6 µM
TGI (MCF7 breast): > 100 µM
GI50 (NCI-H522 lung): 25.7 µM
TGI (NCI-H522 lung): 78.2 µM
GI50 (HOP-62 NSCLC): 30.4 µM
TGI (HOP-62 NSCLC): > 100 µM
GI50 (OVCAR-8 ovarian): 48 µM
TGI (OVCAR-8 ovarian): > 100 µM
GI50 (SK-MEL-28 melanoma): 22.8 µM
TGI (SK-MEL-28 melanoma): > 100 µM
GI50 (UO-31 renal): 31.6 µM
TGI (UO-31 renal): > 100 µM
GI50 (OVCAR-5 ovarian): 31.7 µM
TGI (OVCAR-5 ovarian): > 100 µM
GI50 (T-47D breast): 6.04 µM
TGI (T-47D breast): 37.3 µM
